Laboratory results as given in ChEMBL document CHEMBL1151828, “Screening of flavonoids as candidate antibiotics against Enterococcus faecalis” (J Nat Prod, 2009).
In brackets after ≈: the same amount, converted by molar mass.

Legend:
Enterococcus faecalis [1] = assay: Antimicrobial activity against vancomycin-resistant Enterococcus faecalis after 20 hrs by broth microdilution method; format: functional
Enterococcus faecalis [2] = assay: Antimicrobial activity against Enterococcus faecalis after 20 hrs by broth microdilution method; format: functional
[3] = Solubility at 1 mM; format: physicochemical; settings: 1000 µM

Q: For `O=C1CC(c2ccccc2O)Oc2ccc(O)cc21` (centres undefined), which MIC (Enterococcus faecalis [1]) is on record?
A: 256 µg/mL (≈ 999 µM)

Q: And the MIC (Enterococcus faecalis [2])?
A: 256 µg/mL (≈ 999 µM)

Q: What does the source list for `O=C1CC(c2cccc(O)c2)Oc2ccccc21` (centres undefined) [3'-HYDROXYFLAVANONE]?
A: MIC (Enterococcus faecalis [1]): 256 µg/mL (≈ 1070 µM); MIC (Enterococcus faecalis [2]): 256 µg/mL (≈ 1070 µM)

Q: For `O=C1c2c(O)cc(O)cc2O[C@H](c2ccc(O)c(O)c2)[C@H]1O` [(+)-TAXIFOLIN], which MIC (Enterococcus faecalis [1]) is on record?
A: 512 µg/mL (≈ 1680 µM)

Q: What about the MIC (Enterococcus faecalis [2]) of the same molecule?
A: 128 µg/mL (≈ 421 µM)

Q: For `O=C1c2ccc(O)cc2OC(c2cc(O)c(O)c(O)c2)C1O` (centres undefined) [DIHYDROBINETIN], which MIC (Enterococcus faecalis [1]) is on record?
A: > 512 µg/mL

Q: And the MIC (Enterococcus faecalis [2])?
A: 256 µg/mL (≈ 841 µM)

Q: And the solubility [3]?
A: Insoluble

Q: With `O=C1C[C@@H](c2ccc(O)c(O)c2)Oc2cc(O)cc(O)c21` [ERIODICTYOL] as the molecule, how does the MIC (Enterococcus faecalis [1]) read?
A: 512 µg/mL (≈ 1780 µM)

Q: What about the MIC (Enterococcus faecalis [2]) of the same molecule?
A: 256 µg/mL (≈ 888 µM)

Q: What does the source list for `O=C1C[C@@H](c2ccc(O)cc2)Oc2cc(O)cc(O)c21` [NARINGENIN]?
A: MIC (Enterococcus faecalis [1]): 512 µg/mL (≈ 1880 µM); MIC (Enterococcus faecalis [2]): 256 µg/mL (≈ 940 µM)

Q: Which MIC (Enterococcus faecalis [2]) does the source give for `O=C1C[C@@H](c2ccccc2)Oc2cc(O)cc(O)c21` [PINOCEMBRIN] here?
A: > 512 µg/mL
